Test results from patent publication US10300066B2, “Polyfluorinated compounds acting as bruton tyrosine kinase inhibitors” (ZHEJIANG DTRM BIOPHARMA CO. LTD., priority 2014, dated 2019).

Assays:
[1] = 28-day toxicokinetic (TK) study in dogs; assay type: in vivo, dog; settings: for AUC: dog, in vivo, 15 mg/kg
[2] = Toxicity and TK studies, 28-day rat and dog; settings: 28-day rat and dog studies
Description: Toxicity and toxicokinetic (TK) studies of the compounds can be performed by well known methods.

[3] = 28-day toxicokinetic (TK) study in rats; assay type: in vivo, rat; settings: for AUC: rat, in vivo, read-out: AUC (area under the curve)
[4] = 45 mg/kg/day, Study Day 1, Female
[5] = 100 mg/kg, Study Day 28, Female

C=CC(=O)N1CC[C@@H](n2nc(-c3ccc(Oc4c(F)c(F)cc(F)c4F)cc3F)c3c(N)ncnc32)C1 [Compound 45, 1-((R)-3-(4-amino-3-(2-fluoro-4-(2,3,5,6-tetrafluorophenoxy)phenyl)-1H-pyrazolo[3,4-d]pyrimidin-1-yl)pyrrolidin-1-yl)prop-2-en-1-one]
AUC compared to ibrutinib [1]: significantly higher
AUC0-24 h [1, 4]: 6220 ± 3000 ng·h/mL
Cmax [1, 4]: 1220 ± 431 ng/mL
Cmax ([1]; 150 mg/kg/day, Study Day 1, Male): 2460 ± 858 ng/mL
AUC ([1]; female): 2930 ng·h/mL
AUC ([1]; male): 3550 ng·h/mL
Bioavailability compared to ibrutinib [2]: superior bioavailability
Drug exposure, Day 1 versus Day 28 [2]: no significant difference
Drug exposure, male versus female [2]: no significant difference
Pharmacokinetics compared to ibrutinib [2]: excellent pharmacokinetics
Toxicity compared to ibrutinib [2]: low toxicity
AUC compared to ibrutinib [3]: significantly higher
Cmax ([3]; 40 mg/kg, Study Day 1, Female): 2660 ng/mL
Cmax ([3]; 40 mg/kg, Study Day 28, Male): 2090 ng/mL
AUC0-24 h [3, 5]: 29600 ng·h/mL
Cmax [3, 5]: 3830 ng/mL
AUC0-24 h ([3]; 100 mg/kg, Study Day 28, Male): 30300 ng·h/mL
Cmax ([3]; 200 mg/kg, Study Day 28, Male): 4540 ng/mL
AUC ([3]; 40 mg/kg, female): 17300 ng·h/mL
AUC ([3]; 40 mg/kg, male): 13700 ng·h/mL
